# Measured values: patent US11033473B2, “Hair restoration/growth stimulating agent” (Kinjirushi Co., Ltd., priority 2015, dated 2021)
# Read-outs that look alike come from different tables or passages of the source.
# Columns and labels:
# [1] = test system: human hair follicle dermal papilla cells; experiment: Evaluation of human hair follicle dermal papilla cell-activating action (Living Cell Count Reagent SF, ABS/hr); type: cell-based; settings: for cell-activating action vs 0.1% DMSO experimental section: 100 μmol/L
# Experimental: After one-day culturing in the carbon dioxide incubator, the cells were transferred to a follicle dermal papilla cell proliferation medium in which isosaponarin was dissolved at final concentrations of 0.1 μmol/L, 10 μmol/L, and 1000 μmol/L. Then, the cells were cultured for one day and three days, and proliferation of each cell was compared using Living Cell Count Reagent SF. After the one-day and three-day culturing were completed, the supernatant culture was removed, and the cells were washed with PBS. After washing with PBS, a medium containing 10% Living Cell Count Reagent SF at 300 μL/well was added. The culture supernatant at 100 μL/well was transferred to another 96-well plate 30 and 90 minutes after the addition. Absorbance was measured at a microplate reader (measuring wavelength 450 nm, reference wavelength 595 nm). […] The experiment was carried out five times. A non-addition control section was used as a comparison control section of isosaponarin.
# As a positive control, the same test was carried out also for the case of adding adenosine (Cat. No. 016-10493, distributed by Wako Pure Chemical Industries, Ltd.) at final concentration of 100 μmol/L and minoxidil (Cat. No. M4145-25MG, distributed by Sigma-Aldrich Japan Co., Ltd.) at final concentration of 30 μmol/L. Adenosine was dissolved in dimethyl sulfoxide (DMSO) and added to a test medium at final concentration of 0.1% DMSO. As a solvent control, 0.1% DMSO experimental section was provided. Minoxidil was dissolved in ethanol and added to a test medium at final concentration of 0.1% ethanol. […] Thus, a non-addition control section was used for a comparison control section of minoxidil.
# Significance test was performed in the comparison experimental section. The test was carried out as Student T-test. It is determined that there is significance when P<0.05 (less than 5% if null hypothesis is true), as described in the figures.
# A 100 mmol/L stock solution of adenosine (positive control substance) was prepared using DMSO as a solvent, and added to a test medium at final concentration of 100 μmol/L (0.1% DMSO experimental section was used as a solvent control). A 15 mmol/L stock solution of minoxidil was prepared with 50% ethanol, and added to a test medium at final concentration of 30 μmol/L. Since solvent (ethanol) concentration in this case is 0.2%, 0.2% ethanol experimental section was used as the control section.
# Since the concentration of the solvent in the highest concentration of each test substance is 0.1% or less, it is determined that there is no influence of the solvent in the present test, and a non-addition control section was used as a reference in comparison of significant difference. The test was conducted as a Student T-test.
# (§1) Thereafter, the cells were cultured for three days, and proliferation of each cell is compared using Living Cell Count Reagent SF. The experiment was carried out five times. After three-days culturing was completed, supernatant liquid of the culture was collected and a VEGF production amount of the supernatant was measured by ELISA kit as in Example 2.
# Further, the supernatant was removed. The cells were washed with PBS, and a medium containing 10% Living Cell Count Reagent SF (300 μL/well) was then added. 100 μL per well of the culture supernatant 30 and 90 minutes after the addition was transferred to another 96-well plate and absorbance was measured with a microplate reader (measuring wavelength 450 nm, reference wavelength 595 nm).
# VEGF = VEGF production promoting action in human hair follicle dermal papilla cells (ELISA of culture supernatant); type: cell-based
# Experimental: An amount of VEGF in a culture supernatant treated with isosaponarin for three days on human hair follicle dermal papilla cells was measured using ELISA kit for (product name: Human VEGF Quantikine ELISA, Cat. No. DVE00, distributed by R&D Systems, Inc.) The supernatant at the time of three-day culturing in the above section (1-3) was used as the culture supernatant treated with isosaponarin for three days. Specifically, in the above section (1-3), in order to measure absorbance, the culture supernatant was removed three days after addition of isosaponarin. In an evaluation test of VEGF production promoting action, the culture supernatant was collected three days after the addition of isosaponarin, and the supernatant was used as a sample. The experiment was carried out five times.
# Hereinafter, a method of measuring VEGF will be described in detail. For the measurement of VEGF, the stock solution was used without diluting the supernatant.
# Procedure 1-1. On the basis of a VEGF standard stock solution (2000 pg/mL), VEGF standard solutions of 1000, 500, 250, 125, 62.5, 31.2, and 15.6 pg/mL were prepared using a reaction buffer.
# Procedure 1-2. Each of the VEGF standard solutions and 200 μL of sample (culture supernatant) were added to a VEGF immobilized microplate in which 50 μL of dilution was added to each well, and allowed to react at room temperature for 2 hours (primary reaction).
# Procedure 1-3. The solutions in the wells were removed and the wells were washed 3 times with washing solution.
# Procedure 1-4. 200 μL of horseradish peroxidase-conjugated VEGF antibody solution was added to each well and allowed to react for 2 hours at room temperature (secondary reaction).
# Procedure 1-5. The solutions in the wells were removed and the wells were washed 3 times with the washing solution.
# Procedure 1-6. 200 μL of substrate solution was added to each well and allowed to react for 20 minutes at room temperature.
# Procedure 1-7. 50 μL of reaction stop solution was added to each well. After one minute mixing in a plate mixer, absorbance of each well was measured with a plate reader (measuring wavelength 450 nm).
# Procedure 1-8. From a standard curve, VEGF concentration in the sample was calculated.
# A non-addition control section was used as a comparison control section of isosaponarin.
# As a positive control, the same experiment was performed to the case of adding minoxidil having final concentration of 30 μmol/L as well. A non-addition control section was used as a comparison control section of minoxidil.
# as §1
# FGF-7 gene = FGF-7 gene expression in human hair follicle dermal papilla cells (real-time PCR); type: cell-based; settings: cultured for two hours
# Experimental: Then, the cells are cultured for two hours, and total RNA was recovered and reverse transcribed into cDNA. Thereafter, FGF-7 gene expression was measured by real-time PCR. Using GAPDH gene as an internal reference, FGF-7 gene expression was calculated as a relative value of the negative control section. The experiment was carried out three times. Details of each procedure are shown below.
# First, collection of total RNA from the cells and cDNA synthesis were carried out according to the steps of FastLane Cell RT-PCR kit.
# Step 7-1. 500 μL per well of buffer FCW was added to the cells washed with PBS, and the buffer FCW was immediately removed and aspirated.
# Step 7-2. 200 μL per well of the buffer FCP was added. After incubation for 5 minutes at room temperature (25° C.), FastLane lysate was transferred to a 96-well PCR tube. The tube was stored at −80° C. until the next cDNA synthesis.
# Step 7-3. Lysate in Step 7-2 was dissolved at room temperature. 2 μL of gDNA Wipeout Buffer, 1μL of FastLane lysate and 11 μL of RNase-free water were added to a new PCR tube, caused to react for 5 minutes at 42° C., and then transferred immediately to ice. (In fact, an appropriate amount of master mix of gDNA Wipeout Buffer and RNase-free water was added to the tube containing lysate.)
# Step 7-4. 6 μL of the reverse transcription reaction master mix was added to 14 μL of reaction solution obtained in Step 7-3 and incubated for 30 minutes at 42° C. (1 μL of Quantiscript Reverse Transcriptase, 4 μL of Quantiscript RT Buffer, 1 μL of RT Primer Mix/tube).
# Step 7-5. The reaction solution was treated for 3 minutes at 95° C., to inactivate the reverse transcriptase. […]
# The relative expression level of each gene was calculated as follows. From an intersection of an amplification curve of each gene and a threshold line of each gene, a Ct value (the number of PCR cycles) was calculated. ΔCt value is obtained by subtracting a Ct value of the internal reference GAPDH gene from a Ct value of the target gene (Ct values (target gene)−Ct (GAPDH2)=ΔCt value). […]
# [2] = test system: human hair follicle dermal papilla cells; experiment: Cytotoxicity test using human hair follicle dermal papilla cells; settings: three-day culture; for concentration showing toxicity to human hair follicle dermal papilla cells: FIGS. 5-7
# Experimental: (§2) Human hair follicle dermal papilla cells (Cat. No. CA60205a, Lot No. 2548, derived from person, distributed by Toyobo Co., Ltd.), which are widely used in efficacy evaluation of a hair restoration agent, were used as test cells. The human hair follicle dermal papilla cells were cultured in a carbon dioxide incubator (5% CO2, 37° C.) using a follicle dermal papilla cell proliferation medium (Cat. No. TMTPGM-250, distributed by Toyobo Co., Ltd.) A flask used for the culture was coated with collagen I before use. For cell passage, cells were separated from the flask using a follicle dermal papilla cell dedicated subculture set (Cat. No. CA090K, distributed by Toyobo Co., Ltd.)
# (§3) The human hair follicle dermal papilla cells were seeded in a collagen I-coated 96-well plate at 5×10^3 cells/well (0.1 mL/well in this test). After one-day culturing (50% confluent) in the carbon dioxide incubator (5% CO2, 37° C.), the cells were transferred to a test medium containing isosaponarin, and then cultured for three days. Cell proliferation was compared using Living Cell Count Reagent SF (Cat. No. 07553, distributed by Nacalai Tesque, Inc.) In consideration of possible influence on absorbance by precipitates adhering to the cells in absorbance measurement in living cell count, the culture supernatant was removed after the end of the three-day culturing, and the cells were washed with a phosphate-buffered saline (PBS). After washing with PBS, 100pL per well of a medium containing 10% of Living Cell Count Reagent SF was added. Absorbance (measurement wavelength 450 nm, reference wavelength 595 nm) of the culture supernatant was measured 30 minutes and 90 minutes after the addition. An amount of change (ABS/hr) in absorbance ABS per hour was calculated from values at 90 minutes and 30 minutes. The experiment was carried out three times.
# [3] = test system: human hair follicle dermal papilla cells; experiment: Evaluation of human hair follicle dermal papilla cell-activating action (Living Cell Count Reagent SF, ABS/hr); type: cell-based; settings: Example 7, three days
# [4] = test system: human hair follicle dermal papilla cells
# Experimental: as §2, §3
# [5] = Example 7, 0.1 μmol/L, three days
molecule,measurement,setting,value
"Nc1ncnc2c1ncn2[C@@H]1O[C@H](CO)[C@@H](O)[C@H]1O [adenosine, reference compound]",cell-activating action vs 0.1% DMSO experimental section,"[1]; Example 1, three-day processing period",more significant cell-activating action
same,cell-activating action vs 0.1% DMSO experimental section,"[1]; Example 7, three days, FIG. 8",more significant cell-activating action
same,amount of VEGF vs 0.1% DMSO experimental section,"VEGF; Example 7, 100 μmol/L, three days, FIG. 9",significantly increased the amount of VEGF on human hair follicle dermal papilla cell slightly more
same,FGF-7 gene expression vs 0.1% DMSO experimental section,"FGF-7 gene; 100 μmol/L, FIG. 10",more significantly elevated FGF-7 gene expression
"O=c1cc(-c2ccc(O)cc2)oc2cc(O)cc(O)c12 [apigenin, 2-(4-hydroxyphenyl)-5-hydroxy-7-hydroxy-4H-1-benzopyran-4-one]",concentration showing toxicity to human hair follicle dermal papilla cells,[2],≥ 80 µM
same,cell-activating action vs non-addition control section,"[3]; 0.001 μmol/L to 1 μmol/L, FIG. 8",more significant cell-activating action
same,cell-activating action vs non-addition control section,[3]; 10 μmol/L,no significance
same,amount of VEGF vs non-addition control section,"VEGF; Example 7, 0.001 μmol/L to 0.01 μmol/L, three days, FIG. 9",increased more significantly
same,amount of VEGF vs non-addition control section,VEGF; [5],no significance
COC(=O)/C=C/c1ccc(O)c(O)c1 [caffeic acid methyl ester],concentration showing toxicity to human hair follicle dermal papilla cells,[2],≥ 16 µM
same,amount of VEGF vs non-addition control section,VEGF; [5],did not show any significance
same,amount of VEGF vs non-addition control section,"VEGF; Example 7, 1 μmol/L, three days, FIG. 9",increased more significantly
same,amount of VEGF vs non-addition control section,"VEGF; Example 7, 10 μmol/L, three days",did not show any significance
"O=c1cc(-c2ccc(O[C@@H]3O[C@H](CO)[C@@H](O)[C@H](O)[C@H]3O)cc2)oc2cc(O)c([C@@H]3O[C@H](CO)[C@@H](O)[C@H](O)[C@H]3O)c(O)c12 [isosaponarin, 4′-(β-D-glucopyranosyloxy)-5,7-dihydroxy-6-β-D-glucopyranosylflavone]",concentration showing no toxicity to human hair follicle dermal papilla cells,[2]; FIG. 1,≤ 1000 µM
same,cell-activating action vs non-addition control section,"[1]; Example 1, 0.1 μmol/L to 1000 μmol/L, one-day processing period, FIG. 2",slightly more significant cell-activating action
same,cell-activating action vs non-addition control section,"[1]; Example 1, 0.1 μmol/L to 1000 μmol/L, three-day processing period, FIG. 3",more significant cell-activating action
same,cell-activating action relative to the action in the case of treating with minoxidil,"[1]; Example 1, three-day processing period, minoxidil 30 μmol/L",about three times
same,amount of VEGF vs non-addition control section,"VEGF; Example 2, 1000 μmol/L, treated for three days, FIG. 4",significantly increased
"Nc1cc(N2CCCCC2)nc(N)[n+]1[O-] [minoxidil, 6-(1-piperidinyl)-2,4-pyrimidinediamine-3-oxide, reference compound]",cell-activating action vs non-addition control section,"[1]; Example 1, 30 μmol/L, one-day processing period",slightly more significant cell-activating action
same,cell-activating action vs non-addition control section,"[1]; Example 1, 30 μmol/L, three-day processing period",more significant cell-activating action
same,cell-activating action vs 0.2% ethanol experimental section,"[3]; 30 μmol/L, FIG. 8",more significant cell-activating action
same,amount of VEGF vs non-addition control section,"VEGF; Example 2, 30 μmol/L, treated for three days, FIG. 4",significantly increased
same,amount of VEGF vs 0.2% ethanol experimental section,"VEGF; Example 7, 30 μmol/L, three days, FIG. 9",more significantly increased
coumaric acid,concentration showing toxicity to human hair follicle dermal papilla cells,[4],≥ 2000 µM
same,cell-activating action vs non-addition control section,[3]; 0.01 μmol/L,did not show significance
same,cell-activating action vs non-addition control section,"[3]; 0.1 μmol/L, FIG. 8",more significant cell-activating action
same,cell-activating action vs non-addition control section,[3]; 10 μmol/L,did not show significance
same,FGF-7 gene expression vs non-addition control section,"FGF-7 gene; 0.001 μmol/L, FIG. 10",more significantly elevated
same,FGF-7 gene expression vs non-addition control section,FGF-7 gene; 0.01 μmol/L,did not show any significance
